In patent US20250144250A1, “PH-SENSITIVE FLUOROPHORES” (The General Hospital Corporation, priority 2022, published 2025):

Legend:
ID8 cells = test: Inhibition assay of transporters to determine entry mechanism of PH08; format: cell-based, murine; details: 0.2 μM PH08
Method: FIG. 2 Cellular uptake of pH sensing NIR fluorophores via membrane transporters: In vitro tumor cell uptake of the pH sensing NIR probes under normoxic and hypoxic conditions. Murine cancer cell line ID8 cells were incubated at normoxic or hypoxic conditions (1% O2) for 24 h at 37° C. and then incubated for 30 min in the presence of 0.1 μM NIR probes. (a) Representative fluorescence images of cells are shown. The contrast was normalized across all images. Scale bar=100 μm. (b) Quantitative time-course measurements of the fluorescence intensity in cells. *P<0.05, **P<0.01 by two-way ANOVA followed by Tukey's multiple comparisons test (Normoxia vs. Hypoxia). Error bars show mean #s.d. […] Representative fluorescence images of cells are shown. […] (d) Quantitative measurements of the fluorescence intensity in cells. *P<0.05 by two-way ANOVA followed by Tukey's multiple comparisons test. […]
The organic anion transporting polypeptides (OATPs) is known to mediate the transmembrane uptake of small molecule drugs and include structurally related fluorophores such as the clinically approved indocyanine green (ICG) and tumor-targeting IR-780. […] Next, we determined the contribution of organic cation transporters (OCTs) and organic carnitine (zwitterion) transporters (OCTNs) on the uptake of PH08, which may play roles in the transcellular movement of small organic molecules across epithelial barriers. […]

[1] = tested on: ID8 ovarian cancer tumor tissue; test: Histological analysis of tumor-targetability of the NIR fluorophore; format: in vivo, mice; details: frozen sections, 4 h post-injection of 20 nmol
Method: Histological analysis of tumor-targetability of the NIR fluorophore: To determine the tissue distribution of the NIR fluorophore, tumors and major organs were removed from ID8 ovarian cancer-bearing mice 4 h post-injection with 20 nmol of PH08 in 100 μL of 5% wt/v BSA/saline. The dissected tissues were trimmed and embedded in Tissue-Tek optimum cutting temperature (OCT) compound (Sakura Finetek, Torrance, CA) without a pre-fixation step, and the tissue block was frozen at −80° C. Ten-μm thick frozen sections were cut by a cryostat (Leica, Germany). The slides were subject to fluorescence analysis first, then stained for hematoxylin and eosin (H&E). Fluorescence and brightfield images were acquired on the 4-channel Nikon TE2000 epifluorescence microscope. Image acquisition and analysis were performed using IPLab software (Scanalytics, Fairfax, VA). […] Exposure times were adjusted to obtain a similar maximum fluorescence value for each fluorescence image. […] In order to validate the tumor-specific fluorescence signal, frozen sections including both tumor and adjacent normal tissues harvested from tumor-bearing mice were examined by fluorescence microscopy. […] The fluorescence signal was mostly seen on the top 3-4 layers of cells in the tumor tissue, of which the signal was found predominantly in the extracellular space and cytoplasm.

Structure (SMILES): CCN1/C(=C/C=C2\CCCC(/C=C/C3=[N+](CC)c4ccccc4C3(C)C)=C2N2CCNCC2)C(C)(C)c2ccccc21 [PH08]
- cellular uptake after treatment with D22, inhibitor of OCTs and OCTNs (ID8 cells): did not induce changes in cellular uptake
- cellular uptake after treatment with bromsulphthalein (BSP), OATP inhibitor (ID8 cells): significant reduction in cellular uptake
- fluorescence signal in tissue sections [1]: detected throughout the tumor tissue with no substantial fluorescence signals in neighboring muscles
